Source: paper PMC5693948, “Phosphatidylserine decarboxylase CT699, lysophospholipid acyltransferase CT775, and acyl-ACP synthase CT776 provide membrane lipid diversity to Chlamydia trachomatis” (Scientific Reports, 2017)

Columns and labels:
[1] = target: T1, CT775 (LpaT), lysophospholipid acyltransferase (Chlamydia trachomatis, UniProt O84780); test: NBD-PC formation, TLC, bee venom PLA2 digestion, microsomes; type: biochemical; conditions: 1 µM NBD-C16-CoA, 10 µM 1-C16-GPC, pH 7.4, 30 °C; acyl acceptor
T1 construct: gene CT_775; expressed in E. coli BL21(DE3), membrane fraction (microsomes); cloning reported previously
T1 sequence (O84780 1-253): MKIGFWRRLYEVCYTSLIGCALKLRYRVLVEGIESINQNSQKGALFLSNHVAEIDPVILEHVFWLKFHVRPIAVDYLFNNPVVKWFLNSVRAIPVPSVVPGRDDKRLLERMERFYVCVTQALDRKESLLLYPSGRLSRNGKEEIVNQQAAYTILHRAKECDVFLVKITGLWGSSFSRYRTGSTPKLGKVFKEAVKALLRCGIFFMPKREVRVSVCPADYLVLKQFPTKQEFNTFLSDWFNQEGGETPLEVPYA

[2] = target: T2, hACSL6-iso2 (human long-chain acyl-CoA synthetase 6) (Homo sapiens, UniProt Q9UKU0); test: acyl-CoA / acyl-AMP formation; type: biochemical; conditions: with fatty acid and CoASH
T2 construct: gene ACSL6; hexahistidine fusion, Ni-NTA partially purified, CHAPS lysis
T2 sequence (Q9UKU0 1-697): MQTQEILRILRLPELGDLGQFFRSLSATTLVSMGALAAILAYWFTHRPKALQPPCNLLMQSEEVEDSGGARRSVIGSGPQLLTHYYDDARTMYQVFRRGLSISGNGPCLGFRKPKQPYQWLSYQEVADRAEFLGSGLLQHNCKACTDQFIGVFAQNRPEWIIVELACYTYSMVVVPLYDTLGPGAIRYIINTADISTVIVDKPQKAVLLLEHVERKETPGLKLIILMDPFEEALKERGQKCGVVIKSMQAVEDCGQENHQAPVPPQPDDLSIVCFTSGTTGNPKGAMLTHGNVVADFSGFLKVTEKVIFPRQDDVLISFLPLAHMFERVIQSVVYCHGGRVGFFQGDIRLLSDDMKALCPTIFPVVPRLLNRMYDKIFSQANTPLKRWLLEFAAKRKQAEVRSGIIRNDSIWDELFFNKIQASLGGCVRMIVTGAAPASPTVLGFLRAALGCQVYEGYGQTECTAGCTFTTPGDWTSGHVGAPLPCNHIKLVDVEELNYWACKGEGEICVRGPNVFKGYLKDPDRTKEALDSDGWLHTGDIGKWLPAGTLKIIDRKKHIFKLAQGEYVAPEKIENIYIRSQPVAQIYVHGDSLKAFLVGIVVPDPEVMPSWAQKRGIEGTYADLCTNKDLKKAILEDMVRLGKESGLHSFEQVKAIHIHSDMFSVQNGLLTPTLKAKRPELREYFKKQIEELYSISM

human LPCAT1 (hLPCAT1) = target: T3, human LPCAT1 (hLPCAT1) (Homo sapiens, UniProt Q8NF37); test: competition with NBD-C16-CoA acylation of 1-C16-GPC, TLC fluorescence, microsomes; type: biochemical; conditions: 0.5 µM NBD-C16-CoA, 20 µM 1-C16-GPC, 0.25-1.0 µM competitor, 30 °C; competing acyl donor
T3 construct: expressed in E. coli BL21(DE3), membrane fraction; cloning reported previously
T3 sequence (Q8NF37 1-534): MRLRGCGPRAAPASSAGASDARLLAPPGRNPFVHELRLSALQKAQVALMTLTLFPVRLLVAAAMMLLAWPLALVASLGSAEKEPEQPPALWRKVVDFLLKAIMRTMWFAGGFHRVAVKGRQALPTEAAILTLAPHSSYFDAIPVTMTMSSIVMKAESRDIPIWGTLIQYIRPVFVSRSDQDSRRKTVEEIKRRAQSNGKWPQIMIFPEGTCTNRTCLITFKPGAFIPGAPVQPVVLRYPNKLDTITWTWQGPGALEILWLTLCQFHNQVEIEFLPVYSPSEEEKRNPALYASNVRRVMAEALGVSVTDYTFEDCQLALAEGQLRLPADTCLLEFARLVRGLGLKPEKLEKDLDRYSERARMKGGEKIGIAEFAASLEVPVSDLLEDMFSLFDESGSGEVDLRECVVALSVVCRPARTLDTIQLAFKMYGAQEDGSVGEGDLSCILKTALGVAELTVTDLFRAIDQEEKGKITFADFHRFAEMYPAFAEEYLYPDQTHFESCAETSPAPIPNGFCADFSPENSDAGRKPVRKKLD

[3] = target: T2, hACSL6-iso2 (human long-chain acyl-CoA synthetase 6); test: competition with […]C18:1-CoA formation; type: biochemical; conditions: 1 µM [14C]C18:1-OH, ATP, CoASH, 0.15 µM enzyme, 30 °C; competing substrate
[4] = target: T4, CT699 (PsdD), PS-decarboxylase (Chlamydia trachomatis, UniProt P0CD79); test: conversion of NBD-PS to NBD-PE, TLC fluorescence, E. coli lysate vs vector control; type: cell-based; conditions: 2 µM NBD-PS, Tris pH 7.4, 37 °C; labelled compound
T4 construct: gene psd; full-length, pET28a, expressed in E. coli BL21(DE3), lysate
T4 sequence (P0CD79 1-259): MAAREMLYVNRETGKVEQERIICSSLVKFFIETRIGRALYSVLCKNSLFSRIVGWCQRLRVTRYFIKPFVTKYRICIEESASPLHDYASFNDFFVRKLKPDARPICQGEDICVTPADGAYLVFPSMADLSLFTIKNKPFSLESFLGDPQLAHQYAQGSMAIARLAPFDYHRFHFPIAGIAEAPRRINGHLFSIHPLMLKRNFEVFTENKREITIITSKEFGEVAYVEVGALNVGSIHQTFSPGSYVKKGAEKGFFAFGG
T4 sequence (P0CD79 260-301): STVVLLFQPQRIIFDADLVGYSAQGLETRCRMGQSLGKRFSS

[5] = target: T5, AasC (CT776), Chlamydia acyl-ACP synthase (Chlamydia trachomatis, UniProt O84781); test: […]-phospholipid formation from […]-palmitate in E. coli lysate, TLC; type: biochemical; conditions: 5 µM [14C]C16-OH, 10 mM ATP, 20 mM MgCl2, pH 7.4, 30 °C; E. coli acyl carrier and acyltransferase in lysate
T5 construct: gene aas; full-length, pET28a, expressed in E. coli BL21(DE3), crude lysate
T5 sequence (O84781 1-537): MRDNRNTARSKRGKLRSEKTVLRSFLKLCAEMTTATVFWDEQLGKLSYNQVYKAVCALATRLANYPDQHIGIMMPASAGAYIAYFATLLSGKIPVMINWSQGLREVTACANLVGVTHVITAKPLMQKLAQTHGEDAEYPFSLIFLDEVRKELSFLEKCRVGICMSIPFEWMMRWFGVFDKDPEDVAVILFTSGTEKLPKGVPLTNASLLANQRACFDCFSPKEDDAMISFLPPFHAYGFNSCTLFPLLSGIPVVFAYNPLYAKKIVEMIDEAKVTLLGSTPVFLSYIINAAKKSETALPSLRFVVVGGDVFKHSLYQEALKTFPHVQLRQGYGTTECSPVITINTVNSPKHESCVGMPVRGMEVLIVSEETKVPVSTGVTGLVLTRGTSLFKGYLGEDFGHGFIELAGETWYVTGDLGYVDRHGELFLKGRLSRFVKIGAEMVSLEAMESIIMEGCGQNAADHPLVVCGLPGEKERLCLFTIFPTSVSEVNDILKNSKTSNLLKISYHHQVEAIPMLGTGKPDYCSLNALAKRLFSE

[6] = target: T5, AasC (CT776), Chlamydia acyl-ACP synthase; test: as above; type: biochemical; conditions: 5 µM [14C]C16-OH, 10 mM ATP, 20 mM MgCl2, pH 7.4, 30 °C; E. coli acyl carrier and acyltransferase in lysate; remark: listed apart in the source

Compound: CCCCCCCCCCCCCCCC(=O)OC[C@@H](O)COP(=O)([O-])OCC[N+](C)(C)C [1-C16-sn-glycerol-3-P-choline, 1-palmitoyl-2-hydroxy-sn-glycero-3-phosphocholine]
- NBD-PC formation, TLC, bee venom PLA2 digestion, microsomes [1]: NBD-acyl group had been transferred by CT775 to the sn2 position of the 1-C16-GPC isomer

Compound: Nc1ncnc2c1ncn2[C@@H]1O[C@H](COP(=O)(O)OP(=O)(O)OP(=O)(O)O)[C@@H](O)[C@H]1O [ATP]
- acyl-CoA / acyl-AMP formation [2]: In the presence of both ATP and CoASH, acyl-CoA is formed from fatty acids

Compound: CCCCCCCC/C=C\CCCCCCCC(=O)SCCNC(=O)CCNC(=O)[C@H](O)C(C)(C)COP(=O)(O)OP(=O)(O)OC[C@H]1O[C@@H](n2cnc3c(N)ncnc32)[C@H](O)[C@@H]1OP(=O)(O)O [C18:1-CoA]
- % of activity without competitor (human LPCAT1 (hLPCAT1)): MeC18-CoA was a stronger competitor than C18:1-CoA

Compound: CC(C)CCCCCCCCCC(=O)O [MeC12-OH]
- competition at 10 μM [3]: The shorter chain MeC12-OH also competed but not as efficiently as MeC18-OH

Compound: CC(C)CCCCCCCCCCCCCCCC(=O)SCCNC(=O)CCNC(=O)[C@H](O)C(C)(C)COP(=O)(O)OP(=O)(O)OC[C@H]1O[C@@H](n2cnc3c(N)ncnc32)[C@H](O)[C@@H]1OP(=O)(O)O [MeC18-CoA]
- % of activity without competitor (human LPCAT1 (hLPCAT1)): NBD-C16-CoA to 1-acyl-GPC by hLPCAT1 was strongly reduced in the presence of MeC18-CoA

Compound: CC(C)CCCCCCCCCCCCCCCC(=O)O [MeC18-OH]
- competition at 10 μM [3]: this long-chain odd fatty acid was as good a substrate for hACSL6 as C18:1-OH

Compound: CCCCCCCCCCCCCCCC(=O)OC[C@H](COP(=O)(O)OC[C@H](N)C(=O)O)OC(=O)CCCCCNc1ccc([N+](=O)[O-])c2nonc12 [NBD-PS, 1-palmitoyl-2-(6-[(7-nitro-2-1,3-benzoxadiazol-4-yl)amino]hexanoyl)-sn-glycero-3-phosphoserine]
- conversion of NBD-PS to NBD-PE, TLC fluorescence, E. coli lysate vs vector contr [4]: CT699 was active and able to convert fluorescent NBD-PS into NBD-PE

Compound: CN(CCOc1ccc(CC2SC(=O)NC2=O)cc1)c1ccccn1 (stereo not drawn) [rosiglitazone G]
- % inhibition at 100 μM [5]: both drugs had a significant inhibitory effect on FA incorporation in the presence of the AasC

Compound: CCC/C=C/C/C=C/C=C/C=N/NN=O [triacsin C]
- % inhibition at 5 μM [6]: both drugs had a significant inhibitory effect on FA incorporation in the presence of the AasC
